# Assay results: patent publication US8163781B2, “Bi-aryl aminotetralines” (Hoffman-La Roche Inc., priority 2008, dated 2012)
# Target: T1, human CRTH2 (Homo sapiens, UniProt Q9Y5Y4)
# T1 construct: expressed in transfected cells
# T1 sequence (Q9Y5Y4 1-395): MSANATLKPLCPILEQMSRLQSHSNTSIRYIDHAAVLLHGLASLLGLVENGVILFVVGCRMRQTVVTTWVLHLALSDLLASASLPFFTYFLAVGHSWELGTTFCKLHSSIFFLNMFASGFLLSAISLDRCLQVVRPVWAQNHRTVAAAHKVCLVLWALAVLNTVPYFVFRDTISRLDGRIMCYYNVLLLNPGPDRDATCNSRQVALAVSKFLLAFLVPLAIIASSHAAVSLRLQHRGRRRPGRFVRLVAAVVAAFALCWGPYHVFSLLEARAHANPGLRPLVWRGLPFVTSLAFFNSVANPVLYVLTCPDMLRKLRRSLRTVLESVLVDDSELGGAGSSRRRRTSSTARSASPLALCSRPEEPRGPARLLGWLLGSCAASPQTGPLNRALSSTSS
# Assay: Human CRTH2 Receptor Binding Assay
# Settings: whole cell binding, CHO-K1 cells expressing human CRTH2, 20 nM [3H]ramatroban as competing radioligand
# From the text: A whole cell receptor binding assay using [^3H]ramatroban as the competing radioactive ligand was employed to evaluate the compound binding activity to human CRTH2. The radioactive ligand [^3H]ramatroban was synthesized according to Sugimoto et. al. (Eur. J. Pharmacol. 524, 30-37, 2005) to a specific activity of 42 Ci/mmol.
# A cell line stably expressing human CRTH2 was established by transfecting CHO-K1 cells with two mammalian expression vectors that harbored human CRTH2 and G-alpha16 cDNAs, respectively, using FuGene® 6 transfection reagent (from Roche). Stable clones expressing CRTH2 were selected by staining each clone with BM16 (BD Pharmingen™ from BD Biosciences, a division of Becton, Dickinson and Company), which is a rat monoclonal antibody to human CRTH2. The cells were maintained as monolayer cultures in Ham's F-12 medium containing 10% fetal bovine serum, 100 units/mL penicillin, 100 μg/mL streptomycin, 2 mM glutamine, 0.5 mg/mL G418 (geneticin) for CRTH2, and 0.2 mg/mL hygromycin-B (for G-alpha 16). For whole cell receptor binding assay, the monolayer cells were rinsed once with PBS (phosphate buffered saline), dissociated using ethylenediaminetetraacetate (Versene™ EDTA from the Lonza Inc.), and suspended in PBS containing 10 mM MgCl2 and 0.06% BSA (bovine serum albumin) at 1.5×10^6 cells/mL.
# The binding reactions (0.2 mL) were performed in 96-well plates at room temperature in PBS containing 1.5×10^5 cells, 10 mM MgCl2, 0.06% BSA, 20 nM [^3H]ramatroban, and test compound at various concentrations. After 1 hour of binding reactions, the cells were harvested on GF™/B filter microplates (microtiter plates with embedded glass fiber from PerkinElmer, Inc.) and washed 5 times with PBS using a Filtermate™ Harvester (a cell harvester that harvests and washes cells from microplates from PerkinElmer, Inc.). The radioactivities bound to the cells were determined using a microplate scintillation counter (TopCount® NXT, from PerkinElmer, Inc.) after adding 50 μL of Microscint™ 20 scintillation fluid (from PerkinElmer, Inc.) to each well of the filter plates. The radioactivity from non-specific binding was determined by replacing compound with 10 μM of 15(R)-15-methyl PGD2 (from Cayman Chemical Company) in the reaction mixtures. The radioactivity bound to the cells in the absence of compound (total binding) was determined by replacing compound with 0.25% of DMSO (dimethyl sulfoxide) in the reaction mixture. Specific binding data were obtained by subtracting the radioactivity of non-specific binding from each binding data.
# The IC50 value is defined as the concentration of the tested compound that is required for 50% inhibition of total specific binding. In order to calculate the IC50 value, the percent inhibition data were determined for 7 concentrations for each compound. The percent inhibition for a compound at each concentration was calculated according to the following formula, [1-(specific binding in the presence of compound)/(total specific binding)]×100. The IC50 value was then obtained by fitting the percent inhibition data to a sigmoidal dose-response (4 parameter logistic) model in the XLfit® software Excel add-in program [from ID Business Solutions Ltd., model 205, where F(x)=(A+(B−A)/(1+((C/x)^D)))].
row,Structure (SMILES),IC50 [nM]
1,"Cc1ccc(-c2ccc(S(=O)(=O)N[C@@H]3CCCc4c(OCC(=O)O)cccc43)cc2)cc1 [Example 1-2, [(R)-5-(4′-Methyl-biphenyl-4-sulfonylamino)-5,6,7,8-tetrahydro-naphthalen-1-yloxy]-acetic acid]",51.6
2,"O=C(O)COc1cccc2c1CCCC2NS(=O)(=O)c1cccc(Oc2ccccc2)c1 (stereo not shown) [Example 1-3, [5-(3-Phenoxy-benzenesulfonylamino)-5,6,7,8-tetrahydro-naphthalen-1-yloxy]-acetic acid]",200
3,"O=C(O)COc1cccc2c1CCCC2NS(=O)(=O)c1ccc(Oc2ccccc2)nc1 (stereo not shown) [Example 1-6, [5-(6-Phenoxy-pyridine-3-sulfonylamino)-5,6,7,8-tetrahydro-naphthalen-1-yloxy]-acetic acid]",188
4,"O=C(O)COc1cccc2c1CCC[C@H]2NS(=O)(=O)c1ccc(-c2ccc(F)cc2)cc1 [Example 1-7, [(R)-5-(4′-Fluoro-biphenyl-4-sulfonylamino)-5,6,7,8-tetrahydro-naphthalen-1-yloxy]-acetic acid]",52.6
5,"COc1ccc(-c2ccc(S(=O)(=O)N[C@@H]3CCCc4c(OCC(=O)O)cccc43)cc2)cc1 [Example 1-8, [(R)-5-(4′-Methoxy-biphenyl-4-sulfonylamino)-5,6,7,8-tetrahydro-naphthalen-1-yloxy]-acetic acid]",65.9
6,"O=C(O)COc1cccc2c1CCC[C@H]2NS(=O)(=O)c1ccc(-c2ccc(Cl)cc2)cc1 [Example 1-9, [(R)-5-(4′-Chloro-biphenyl-4-sulfonylamino)-5,6,7,8-tetrahydro-naphthalen-1-yloxy]-acetic acid]",84.1
7,"CC(=O)c1ccc(-c2ccc(S(=O)(=O)N[C@@H]3CCCc4c(OCC(=O)O)cccc43)cc2)cc1 [Example 1-10, [(R)-5-(4′-Acetyl-biphenyl-4-sulfonylamino)-5,6,7,8-tetrahydro-naphthalen-1-yloxy]-acetic acid]",67.4
8,"O=C(O)COc1cccc2c1CCCC2NS(=O)(=O)c1cnc(Oc2ccc(F)cc2Cl)c(Br)c1 (stereo not shown) [Example 2-1, {5-[5-Bromo-6-(2-chloro-4-fluoro-phenoxy)-pyridine-3-sulfonylamino]-5,6,7,8-tetrahydro-naphthalen-1-yloxy}-acetic acid]",76.4
9,"O=C(O)COc1cccc2c1CCC[C@H]2NS(=O)(=O)c1ccc(Oc2ccc(Cl)cc2)c(Cl)c1 [Example 2-2, {(R)-5-[3-Chloro-4-(4-chloro-phenoxy)-benzenesulfonylamino]-5,6,7,8-tetrahydro-naphthalen-1-yloxy}-acetic acid]",10.2
10,"N#Cc1cccc(Oc2ncc(S(=O)(=O)NC3CCCc4c(OCC(=O)O)cccc43)cc2Br)c1 (stereo not shown) [Example 2-6, {5-[5-Bromo-6-(3-cyano-phenoxy)-pyridine-3-sulfonylamino]-5,6,7,8-tetrahydro-naphthalen-1-yloxy}-acetic acid]",60.3
11,"CC(C)c1cccc(Oc2ncc(S(=O)(=O)NC3CCCc4c(OCC(=O)O)cccc43)cc2Br)c1 (stereo not shown) [Example 2-9, {5-[5-Bromo-6-(3-isopropyl-phenoxy)-pyridine-3-sulfonylamino]-5,6,7,8-tetrahydro-naphthalen-1-yloxy}-acetic acid]",21.2
12,"Cc1cc(C)cc(Oc2ncc(S(=O)(=O)NC3CCCc4c(OCC(=O)O)cccc43)cc2Br)c1 (stereo not shown) [Example 2-15, {5-[5-Bromo-6-(3,5-dimethyl-phenoxy)-pyridine-3-sulfonylamino]-5,6,7,8-tetrahydro-naphthalen-1-yloxy}-acetic acid]",75.2
13,"O=C(O)COc1cccc2c1CCCC2NS(=O)(=O)c1cnc(Oc2ccc3c(c2)CCC3)c(Br)c1 (stereo not shown) [Example 2-17, {5-[5-Bromo-6-(indan-5-yloxy)-pyridine-3-sulfonylamino]-5,6,7,8-tetrahydro-naphthalen-1-yloxy}-acetic acid]",115
14,"O=C(O)COc1cccc2c1CCCC2NS(=O)(=O)c1cnc(Oc2ccc(CCO)cc2)c(Br)c1 (stereo not shown) [Example 2-22, (5-{5-Bromo-6-[4-(2-hydroxy-ethyl)-phenoxy]-pyridine-3-sulfonylamino}-5,6,7,8-tetrahydro-naphthalen-1-yloxy)-acetic acid]",31.7
15,"O=C(O)COc1cccc2c1CCC[C@H]2NS(=O)(=O)c1ccc(Oc2ccc(F)cc2)c(C(F)(F)F)c1 [Example 2-42, {(R)-5-[4-(4-Fluoro-phenoxy)-3-trifluoromethyl-benzenesulfonylamino]-5,6,7,8-tetrahydro-naphthalen-1-yloxy}-acetic acid]",11.2
16,"O=C(O)COc1cccc2c1CCCC2NS(=O)(=O)c1ccc(-c2cc(F)ccn2)cc1 (stereo not shown) [Example 3-1, {5-[4-(4-Fluoro-pyridin-2-yl)-benzenesulfonylamino]-5,6,7,8-tetrahydro-naphthalen-1-yloxy}-acetic acid]",55.1
17,"O=C(O)COc1cccc2c1CCCC2NS(=O)(=O)c1ccc(-c2cccnc2F)cc1 (stereo not shown) [Example 3-3, {5-[4-(2-Fluoro-pyridin-3-yl)-benzenesulfonylamino]-5,6,7,8-tetrahydro-naphthalen-1-yloxy}-acetic acid]",203
18,"Cc1cccc(-c2ccc(S(=O)(=O)NC3CCCc4c(OCC(=O)O)cccc43)cc2)n1 (stereo not shown) [Example 3-9, {5-[4-(6-Methyl-pyridin-2-yl)-benzenesulfonylamino]-5,6,7,8-tetrahydro-naphthalen-1-yloxy}-acetic acid]",74.9
19,"CS(=O)(=O)c1cncc(-c2ccc(S(=O)(=O)NC3CCCc4c(OCC(=O)O)cccc43)cc2)c1 (stereo not shown) [Example 3-16, {5-[4-(5-Methanesulfonyl-pyridin-3-yl)-benzenesulfonylamino]-5,6,7,8-tetrahydro-naphthalen-1-yloxy}-acetic acid]",20.3
20,"O=C(O)COc1cccc2c1CCC[C@H]2NS(=O)(=O)c1ccc(-c2ccc(O)cc2)cc1 [Example 3-23, [(R)-5-(4′-Hydroxy-biphenyl-4-sulfonylamino)-5,6,7,8-tetrahydro-naphthalen-1-yloxy]-acetic acid]",124
21,"CN(C)C(=O)c1ccc(-c2ccc(S(=O)(=O)N[C@@H]3CCCc4c(OCC(=O)O)cccc43)cc2)cc1 [Example 3-30, [(R)-5-(4′-Dimethylcarbamoyl-biphenyl-4-sulfonylamino)-5,6,7,8-tetrahydro-naphthalen-1-yloxy]-acetic acid]",67.1
22,"Cc1ccc(-c2ccc(S(=O)(=O)N[C@@H]3CCCc4c(OCC(=O)O)cccc43)cc2C)cc1 [Example 3-34, [(R)-5-(2,4′-Dimethyl-biphenyl-4-sulfonylamino)-5,6,7,8-tetrahydro-naphthalen-1-yloxy]-acetic acid]",157
23,"O=C(O)COc1cccc2c1CCC[C@H]2NS(=O)(=O)c1ccc(-c2cccc([N+](=O)[O-])c2)cc1 [Example 3-41, [(R)-5-(3′-Nitro-biphenyl-4-sulfonylamino)-5,6,7,8-tetrahydro-naphthalen-1-yloxy]-acetic acid]",23.9
24,"Cc1cc(-c2ccc(S(=O)(=O)N[C@@H]3CCCc4c(OCC(=O)O)cccc43)cc2)cc(C(C)(C)C)c1 [Example 3-45, [(R)-5-(3′-tert-Butyl-5′-methyl-biphenyl-4-sulfonylamino)-5,6,7,8-tetrahydro-naphthalen-1-yloxy]-acetic acid]",5.9
25,"Cc1cc(-c2ccc(S(=O)(=O)N[C@@H]3CCCc4c(OCC(=O)O)cccc43)nc2)cc(C(C)(C)C)c1 [Example 3-48, {(R)-5-[5-(3-tert-Butyl-5-methyl-phenyl)-pyridine-2-sulfonylamino]-5,6,7,8-tetrahydro-naphthalen-1-yloxy}-acetic acid]",4.8
